In brackets after ≈: the same amount, converted by molar mass.
Test system: SA 9218
Test: MIC by standard agar dilution method
Type: cell-based
Details: Mueller Hinton agar, 10^4 to 10^5 cells per spot, incubated overnight at 35° C., lowest concentration that inhibits visible growth
Source text: The antibacterial agents of this invention have useful activity against a variety of organisms. The in vitro activity of compounds of this invention can be assessed by standard testing procedures such as the determination of minimum inhibitory concentration (MIC) by agar dilution as described in “Approved Standard. Methods for Dilution Antimicrobial Susceptibility Tests for Bacteria That Grow Aerobically”, 3rd. ed., published 1993 by the National Committee for Clinical Laboratory Standards, Villanova, Pa., USA. The in vitro MICs of test compounds were determined by a standard agar dilution method. A stock drug solution of each analog was prepared in the preferred solvent, usually DMSO:H2O (1:3). Serial 2-fold dilutions of each sample are made using 1.0 ml aliquots of sterile distilled water. To each 1.0 ml aliquot of drug was added 9 ml of molten Mueller Hinton agar medium. The drug-supplemented agar was mixed, poured into 15×100 mm petri dishes, and allowed to solidify and dry prior to inoculation. Vials of each of the test organisms are maintained frozen in the vapor phase of a liquid nitrogen freezer. Test cultures are grown overnight at 35° C. on the medium appropriate for the organism. Colonies are harvested with a sterile swab, and cell suspensions are prepared in Trypticase Soy broth (TSB) to equal the turbidity of a 0.5 McFarland standard. A 1:20 dilution of each suspension was made in TSB. The plates containing the drug supplemented agar are inoculated with a 0.001 ml drop of the cell suspension using a Steers replicator, yielding approximately 10^4 to 10^5 cells per spot. The plates are incubated overnight at 35° C. Following incubation the Minimum Inhibitory Concentration (MIC μg/ml), the lowest concentration of drug that inhibits visible growth of the organism, was read and recorded.

| MIC [mg/L] | SMILES |
| --- | --- |
| 16 (≈ 32.7 µM) | Cc1ccc(S(=O)(=O)Nc2ccc(C(=O)Nc3ccc(Br)cc3C(=O)O)cc2)cc1 |
| 4 (≈ 6.86 µM) | O=C(Nc1ccc(I)cc1C(=O)O)c1ccc(S(=O)(=O)N2CCc3ccc(Cl)cc32)cc1 |
| 8 (≈ 11.6 µM) | O=C(Nc1ccc(Br)cc1C(=O)O)c1ccc(Br)c(S(=O)(=O)N2CCN(c3cccc(C(F)(F)F)c3)CC2)c1 |
| 32 (≈ 54 µM) | Cc1ccc(S(=O)(=O)N2CCN(c3ccc(Cl)cc3)CC2)cc1C(=O)Nc1ccc(Br)cc1C(=O)O |
| 32 (≈ 95.2 µM) | O=C(Nc1ccc(Br)cc1C(=O)O)c1cccc(O)c1 |
| > 128 | COc1ccc(C(=O)Nc2ccc(Br)cc2C(=O)O)cc1S(=O)(=O)NCc1ccc(N(C)C)cc1 |
| 16 (≈ 40.6 µM) | COCCOc1cccc(C(=O)Nc2ccc(Br)cc2C(=O)O)c1 |
| 2 (≈ 4.33 µM) | CCCC(=O)C(CCC)Oc1cccc(C(=O)Nc2ccc(Br)cc2C(=O)O)c1 (stereo not shown) |
| 4 (≈ 8.26 µM) | COC(=O)C(Oc1cccc(C(=O)Nc2ccc(Br)cc2C(=O)O)c1)c1ccccc1 (stereo not shown) |
| 32 (≈ 95.2 µM) | O=C(Nc1ccc(Br)cc1C(=O)O)c1ccc(O)cc1 |
| 8 (≈ 17.3 µM) | Cc1ncsc1CCOc1cccc(C(=O)Nc2ccc(Br)cc2C(=O)O)c1 |
| 64 (≈ 176 µM) | CCOc1cccc(C(=O)Nc2ccc(Br)cc2C(=O)O)c1 |
| 32 (≈ 71.5 µM) | O=C(Nc1ccc(Br)cc1C(=O)O)c1cccc(OCCN2CCCC2=O)c1 |
| 32 (≈ 70.7 µM) | CCOCCOCCOc1cccc(C(=O)Nc2ccc(Br)cc2C(=O)O)c1 |
| 32 (≈ 61.4 µM) | Cc1oc(-c2ccccc2)nc1CCOc1cccc(C(=O)Nc2ccc(Br)cc2C(=O)O)c1 |
| 32 (≈ 78.4 µM) | COC(=O)COc1cccc(C(=O)Nc2ccc(Br)cc2C(=O)O)c1 |
| 8 (≈ 17.2 µM) | CCCC(Oc1cccc(C(=O)Nc2ccc(Br)cc2C(=O)O)c1)C(=O)OCC (stereo not shown) |
| 32 (≈ 74.9 µM) | O=C(Nc1ccc(Br)cc1C(=O)O)c1cccc(OCc2cccnc2)c1 |
| 128 (≈ 281 µM) | O=C(Nc1ccc(Br)cc1C(=O)O)c1ccc(OCCOc2ccccc2)cc1 |
| 16 (≈ 38.1 µM) | O=C(Nc1ccc(Br)cc1C(=O)O)c1cccc(OCC2CCOC2)c1 (stereo not shown) |
| 64 (≈ 152 µM) | CC(=O)NCCOc1ccc(C(=O)Nc2ccc(Br)cc2C(=O)O)cc1 |
| 32 (≈ 68.5 µM) | O=C(Nc1ccc(Br)cc1C(=O)O)c1cccc(OCn2nnc3ccccc32)c1 |
| 128 (≈ 283 µM) | CCOCCOCCOc1ccc(C(=O)Nc2ccc(Br)cc2C(=O)O)cc1 |
| 64 (≈ 176 µM) | CCOc1ccc(C(=O)Nc2ccc(Br)cc2C(=O)O)cc1 |

| MIC [mg/L] | SMILES |
| --- | --- |
| 8 (≈ 17.5 µM) | COc1cccc(COc2ccc(C(=O)Nc3ccc(Br)cc3C(=O)O)cc2)c1 |
| 128 (≈ 265 µM) | CN(CCOc1ccc(C(=O)Nc2ccc(Br)cc2C(=O)O)cc1)Cc1ccccc1 |
| 64 (≈ 157 µM) | COC(=O)COc1ccc(C(=O)Nc2ccc(Br)cc2C(=O)O)cc1 |
| 128 (≈ 325 µM) | COCCOc1ccc(C(=O)Nc2ccc(Br)cc2C(=O)O)cc1 |
| 64 (≈ 150 µM) | O=C(Nc1ccc(Br)cc1C(=O)O)c1ccc(OCc2cccnc2)cc1 |
| 16 (≈ 38.4 µM) | CCC#CCCOc1ccc(C(=O)Nc2ccc(Br)cc2C(=O)O)cc1 |
| 64 (≈ 136 µM) | COC(COc1ccc(C(=O)Nc2ccc(Br)cc2C(=O)O)cc1)c1ccccc1 (stereo not shown) |
| 64 (≈ 123 µM) | Nc1ccc(CCNS(=O)(=O)c2cccc(C(=O)Nc3ccc(Br)cc3C(=O)O)c2)cc1 |
| 32 (≈ 61.7 µM) | CCN(Cc1ccncc1)S(=O)(=O)c1cccc(C(=O)Nc2ccc(Br)cc2C(=O)O)c1 |
| 64 (≈ 150 µM) | CCNS(=O)(=O)c1cccc(C(=O)Nc2ccc(Br)cc2C(=O)O)c1 |
| 8 (≈ 11.6 µM) | O=C(Nc1ccc(Br)cc1C(=O)O)c1cc(S(=O)(=O)N2CCN(c3cccc(C(F)(F)F)c3)CC2)ccc1Br |
| 64 (≈ 227 µM) | N#Cc1ccc(NC(=O)c2ccc(O)cc2)c(C(=O)O)c1 |
| 32 (≈ 52.7 µM) | O=C(Nc1ccc(Br)cc1C(=O)O)c1cc(S(=O)(=O)Nc2ccc(F)c(Cl)c2)ccc1Br |
| > 128 | COc1ccc(C(=O)Nc2ccc(Br)cc2C(=O)O)cc1S(=O)(=O)Nc1ccc(Cl)c2ccccc12 |
| 2 (≈ 3.45 µM) | O=C(Nc1ccc(Br)cc1C(=O)O)c1cc(S(=O)(=O)N2CCc3ccccc32)ccc1Br |
| 64 (≈ 108 µM) | COc1ccc(C(=O)Nc2ccc(Br)cc2C(=O)O)cc1S(=O)(=O)Nc1ccc(N2CCOCC2)cc1 |
| > 128 | Cc1ccc(S(=O)(=O)NCCc2ccc(N)cc2)cc1C(=O)Nc1ccc(Br)cc1C(=O)O |
| 16 (≈ 25.5 µM) | Cc1ccc(S(=O)(=O)N2CCN(c3cccc(C(F)(F)F)c3)CC2)cc1C(=O)Nc1ccc(Br)cc1C(=O)O |
| 128 (≈ 214 µM) | CCN(Cc1ccncc1)S(=O)(=O)c1cc(C(=O)Nc2ccc(Br)cc2C(=O)O)ccc1Br |
| > 128 | O=C(Nc1ccc(Br)cc1C(=O)O)c1cc(S(=O)(=O)Nc2ccc(F)c(Cl)c2)c(F)cc1Cl |
| 16 (≈ 37.7 µM) | O=C(Nc1ccc(Br)cc1C(=O)O)c1ccc(/N=N/c2ccccc2)cc1 |
| 64 (≈ 105 µM) | O=C(Nc1ccc(Br)cc1C(=O)O)c1ccc(Br)c(S(=O)(=O)Nc2ccc3c(c2)OCCO3)c1 |
| 128 (≈ 379 µM) | O=C(Nc1ccc(Br)cc1C(=O)O)c1ccccc1F |
| 32 (≈ 49.8 µM) | COc1ccc(C(=O)Nc2ccc(Br)cc2C(=O)O)cc1S(=O)(=O)N1CCN(c2cccc(C(F)(F)F)c2)CC1 |

| MIC [mg/L] | SMILES |
| --- | --- |
| > 128 | N#Cc1ccc(NC(=O)c2cccc3cccc(C=O)c23)c(C(=O)O)c1 |
| 2 (≈ 4.49 µM) | CC(C)CN1C(=O)c2ccc(C(=O)Nc3ccc(Br)cc3C(=O)O)cc2C1=O |
| 8 (≈ 25.9 µM) | CN(C)c1cccc(C(=O)Nc2ccc(C#N)cc2C(=O)O)c1 |
| 8 (≈ 16.9 µM) | O=C(Nc1ccc(Br)cc1C(=O)O)c1ccc2c(c1)C(=O)N(CC1CCCO1)C2=O (stereo not shown) |
| 8 (≈ 27.4 µM) | C=Cc1ccc(C(=O)Nc2ccc(C#N)cc2C(=O)O)cc1 |
| 32 (≈ 81 µM) | COc1ccc(C(=O)Nc2ccc(Br)cc2C(=O)O)cc1[N+](=O)[O-] |
| 64 (≈ 180 µM) | COc1cc(C(=O)Nc2ccc(C#N)cc2C(=O)O)cc(OC)c1OC |
| 128 (≈ 317 µM) | CN1C(=O)c2ccc(C(=O)Nc3ccc(Br)cc3C(=O)O)cc2C1=O |
| 64 (≈ 187 µM) | N#Cc1ccc(NC(=O)c2ccc(-c3ccccc3)cc2)c(C(=O)O)c1 |
| > 128 | COc1cc(C(=O)Nc2ccc(C#N)cc2C(=O)O)ccc1C |
| > 128 | COc1cc(C(=O)Nc2ccc(C#N)cc2C(=O)O)c([N+](=O)[O-])cc1OC |
| > 128 | N#Cc1ccc(C(=O)Nc2ccc(C#N)cc2C(=O)O)cc1 |
| 2 (≈ 6.32 µM) | N#Cc1ccc(NC(=O)c2ccc3ccccc3c2)c(C(=O)O)c1 |
| 64 (≈ 225 µM) | N#Cc1ccc(NC(=O)c2cccc(F)c2)c(C(=O)O)c1 |
| 16 (≈ 40.2 µM) | CCOc1cc(C(=O)Nc2ccc(C#N)cc2C(=O)O)cc(OCC)c1OCC |
| 2 (≈ 6.13 µM) | CCSc1ccc(C(=O)Nc2ccc(C#N)cc2C(=O)O)cc1 |
| 16 (≈ 54 µM) | COc1ccc(C(=O)Nc2ccc(C#N)cc2C(=O)O)cc1 |
| 16 (≈ 47.4 µM) | CCN(CC)c1ccc(C(=O)Nc2ccc(C#N)cc2C(=O)O)cc1 |
| > 128 | CCN(CC)C(=O)c1c(F)ccc(F)c1C(=O)Nc1ccc(C#N)cc1C(=O)O |
| 64 (≈ 196 µM) | COc1ccc(C(=O)Nc2ccc(C#N)cc2C(=O)O)cc1OC |
| 16 (≈ 49.3 µM) | CCCOc1ccc(C(=O)Nc2ccc(C#N)cc2C(=O)O)cc1 |
| 128 (≈ 361 µM) | CCOc1ccc(C(=O)Nc2ccc(C#N)cc2C(=O)O)cc1OCC |
| 16 (≈ 51.6 µM) | N#Cc1ccc(NC(=O)c2ccc3c(c2)OCO3)c(C(=O)O)c1 |
| 32 (≈ 103 µM) | CCOc1ccc(C(=O)Nc2ccc(C#N)cc2C(=O)O)cc1 |

| MIC [mg/L] | SMILES |
| --- | --- |
| > 128 | COc1ccc(CCOc2ccc(C(=O)Nc3ccc(Br)cc3C(=O)O)cc2)cc1 |
| > 128 | N#Cc1ccc(NC(=O)c2cccc3c2C(=O)c2ccccc2-3)c(C(=O)O)c1 |
| 32 (≈ 68 µM) | COc1ccc(CCOc2cccc(C(=O)Nc3ccc(Br)cc3C(=O)O)c2)cc1 |
| 4 (≈ 11.4 µM) | CCCCCOc1ccc(C(=O)Nc2ccc(C#N)cc2C(=O)O)cc1 |
| 16 (≈ 34 µM) | O=C(Nc1ccc(Br)cc1C(=O)O)c1cccc(OCc2cccc([N+](=O)[O-])c2)c1 |
| 32 (≈ 114 µM) | Cc1cccc(C(=O)Nc2ccc(C#N)cc2C(=O)O)c1 |
| 16 (≈ 36 µM) | O=C(Nc1ccc(Br)cc1C(=O)O)c1cccc(OCc2cccc(F)c2)c1 |
| 8 (≈ 25.5 µM) | COc1ccc(C(=O)Nc2ccc(C#N)cc2C(=O)O)cc1F |
| > 128 | O=C(Nc1ccc(Br)cc1C(=O)O)c1cccc(OCc2ccncc2)c1 |
| 32 (≈ 64.7 µM) | O=C(Nc1ccc(Br)cc1C(=O)O)c1ccc(OCc2cccc(C(F)(F)F)c2)cc1 |
| 16 (≈ 34 µM) | O=C(Nc1ccc(Br)cc1C(=O)O)c1ccc(OCc2cccc([N+](=O)[O-])c2)cc1 |
| 64 (≈ 129 µM) | O=C(Nc1ccc(Br)cc1C(=O)O)c1cccc(OCc2cccc(C(F)(F)F)c2)c1 |
| 8 (≈ 16 µM) | COc1cc(COc2ccc(C(=O)Nc3ccc(Br)cc3C(=O)O)cc2)ccc1[N+](=O)[O-] |
| > 128 | O=C(Nc1ccc(Br)cc1C(=O)O)c1ccc(OCC2CCCC2)cc1 |
| > 128 | C#CC(CC)Oc1ccc(C(=O)Nc2ccc(Br)cc2C(=O)O)cc1 (stereo not shown) |
| 128 (≈ 306 µM) | O=C(Nc1ccc(Br)cc1C(=O)O)c1cccc(OCC2CCCC2)c1 |
| 64 (≈ 132 µM) | CCN(CCOc1ccc(C(=O)Nc2ccc(Br)cc2C(=O)O)cc1)c1ccccc1 |
| > 128 | O=C(Nc1ccc(Br)cc1C(=O)O)c1ccc(OCCN2C(=O)CCC2=O)cc1 |
| 128 (≈ 262 µM) | Cc1ncc([N+](=O)[O-])n1CCOc1ccc(C(=O)Nc2ccc(Br)cc2C(=O)O)cc1 |
| 32 (≈ 72 µM) | O=C(Nc1ccc(Br)cc1C(=O)O)c1ccc(OCc2cccc(F)c2)cc1 |
| > 128 | CN1CCCC1COc1ccc(C(=O)Nc2ccc(Br)cc2C(=O)O)cc1 (stereo not shown) |
| > 128 | O=C(Nc1ccc(Br)cc1C(=O)O)c1ccc(OCc2ccncc2)cc1 |
